Experimental data taken from patent publication US20240384268A1, “Oligonucleotides” (Hudson Institute of Medical Research, priority 2021, published 2024).

Target: T1, TLR8 (Homo sapiens, UniProt Q9NR97)
T1 sequence (Q9NR97 27-1041): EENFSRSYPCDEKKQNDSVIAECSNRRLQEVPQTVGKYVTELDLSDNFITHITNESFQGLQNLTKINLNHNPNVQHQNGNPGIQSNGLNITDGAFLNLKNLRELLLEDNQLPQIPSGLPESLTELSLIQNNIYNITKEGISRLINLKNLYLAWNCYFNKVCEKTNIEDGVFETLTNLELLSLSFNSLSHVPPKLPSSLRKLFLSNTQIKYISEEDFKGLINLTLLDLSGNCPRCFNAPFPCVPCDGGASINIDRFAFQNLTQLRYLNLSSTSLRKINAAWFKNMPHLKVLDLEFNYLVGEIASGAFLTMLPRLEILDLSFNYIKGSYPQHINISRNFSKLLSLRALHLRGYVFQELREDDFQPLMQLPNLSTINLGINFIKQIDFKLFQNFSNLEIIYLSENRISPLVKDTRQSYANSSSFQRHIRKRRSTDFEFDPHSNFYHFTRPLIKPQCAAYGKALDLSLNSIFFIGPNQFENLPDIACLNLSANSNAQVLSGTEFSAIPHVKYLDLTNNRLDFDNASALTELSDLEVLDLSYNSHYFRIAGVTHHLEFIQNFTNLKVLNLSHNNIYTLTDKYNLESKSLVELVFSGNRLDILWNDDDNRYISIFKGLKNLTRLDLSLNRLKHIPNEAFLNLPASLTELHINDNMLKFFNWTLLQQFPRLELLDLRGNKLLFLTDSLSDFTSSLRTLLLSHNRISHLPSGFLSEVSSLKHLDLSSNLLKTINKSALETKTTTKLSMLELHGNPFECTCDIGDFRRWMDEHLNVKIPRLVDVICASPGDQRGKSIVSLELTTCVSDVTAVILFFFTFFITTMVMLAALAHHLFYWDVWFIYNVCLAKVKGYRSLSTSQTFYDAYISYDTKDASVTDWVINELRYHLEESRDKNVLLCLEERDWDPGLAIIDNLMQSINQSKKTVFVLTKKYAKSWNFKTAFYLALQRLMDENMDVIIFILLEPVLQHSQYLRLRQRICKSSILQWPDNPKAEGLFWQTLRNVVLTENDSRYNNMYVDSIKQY
Test: HEK-TLR8 NF-κB-luciferase reporter, R848 or Motolimod stimulation (potentiation or inhibition)
Format: cell-based
Set-up: expressed in transfected cells; host or cells: 293XLhTLR8 (HEK293)
Conditions: for TLR8 100 nM (averaged NF-κB-Luciferase level relative to R848 condition, fold increase): ASO 100 nM; for TLR8 100 nM (averaged NF-κB-Luciferase level relative to R848 condition, fold increase) / TLR8 500 nM (averaged NF-κB-Luciferase level relative to R848 condition, fold increase): relative to R848 only; for TLR8 500 nM (averaged NF-κB-Luciferase level relative to R848 condition, fold increase): ASO 500 nM

AAAGGACTGAGGAAAG (antisense; LNA-modified, pattern not given here) [CAMSAP1-6273 LNA KL]
TLR8 100 nM (averaged NF-κB-Luciferase level relative to R848 condition, fold increase): 0.882
TLR8 500 nM (averaged NF-κB-Luciferase level relative to R848 condition, fold increase): 2.663

AACACTTCGTGGGGTC (antisense; LNA-modified, pattern not given here) [HPRT LNA-666 V1]
TLR8 100 nM (averaged NF-κB-Luciferase level relative to R848 condition, fold increase): 0.496
TLR8 500 nM (averaged NF-κB-Luciferase level relative to R848 condition, fold increase): 0.882

AACCCCTTTCACCATC (antisense; LNA-modified, pattern not given here) [MB21D1-689 LNA KL]
TLR8 100 nM (averaged NF-κB-Luciferase level relative to R848 condition, fold increase): 1.871
TLR8 500 nM (averaged NF-κB-Luciferase level relative to R848 condition, fold increase): 8.654

AATCCAACAAAGTCTG (antisense; LNA-modified, pattern not given here) [HPRT LNA-692 KL]
TLR8 100 nM (averaged NF-κB-Luciferase level relative to R848 condition, fold increase): 0.591
TLR8 500 nM (averaged NF-κB-Luciferase level relative to R848 condition, fold increase): 1.900

ACACTTCGTGGGGTCCTTTT (antisense; 2'-MOE modified, pattern not given here) [HPRT-663 MOE]
TLR8 100 nM (MOE-modified ASO at 100 nM, averaged NF-κB-Luciferase relative to R848 condition (fold increase)): 4.778
TLR8 500 nM (MOE-modified ASO at 500 nM, averaged NF-κB-Luciferase relative to R848 condition (fold increase)): 6.320

ACCACGTCTGCTCTAA (antisense; LNA-modified, pattern not given here) [CAMSAP1-1635 LNA KL]
TLR8 100 nM (averaged NF-κB-Luciferase level relative to R848 condition, fold increase): 0.933
TLR8 500 nM (averaged NF-κB-Luciferase level relative to R848 condition, fold increase): 4.259

ACGTTCAGTCCTGTCC (antisense; LNA-modified, pattern not given here) [HPRT LNA-294 V1]
TLR8 100 nM (averaged NF-κB-Luciferase level relative to R848 condition, fold increase): 0.356
TLR8 500 nM (averaged NF-κB-Luciferase level relative to R848 condition, fold increase): 0.493

ACTTCGTGGGGTCCTT (antisense; LNA-modified, pattern not given here) [HPRT LNA-663 V1]
TLR8 100 nM (averaged NF-κB-Luciferase level relative to R848 condition, fold increase): 0.820
TLR8 500 nM (averaged NF-κB-Luciferase level relative to R848 condition, fold increase): 3.672

AGATTTCAGAGCAGCT (antisense; LNA-modified, pattern not given here) [EGFR-4885 LNA KL]
TLR8 100 nM (averaged NF-κB-Luciferase level relative to R848 condition, fold increase): 0.401
TLR8 500 nM (averaged NF-κB-Luciferase level relative to R848 condition, fold increase): 0.770

AGCTTCGAGGCCCCAG (antisense; LNA-modified, pattern not given here) [MB21D1-616 LNA V1]
TLR8 100 nM (averaged NF-κB-Luciferase level relative to R848 condition, fold increase): 0.331
TLR8 500 nM (averaged NF-κB-Luciferase level relative to R848 condition, fold increase): 0.865

AGGACTCCAGATGTTT (antisense; LNA-modified, pattern not given here) [HPRT LNA pos cont]
TLR8 100 nM (averaged NF-κB-Luciferase level relative to R848 condition, fold increase): 0.278
TLR8 500 nM (averaged NF-κB-Luciferase level relative to R848 condition, fold increase): 1.034

AGGCCCTTCGCACTTC (antisense; LNA-modified, pattern not given here) [EGFR-1225 LNA V1]
TLR8 100 nM (averaged NF-κB-Luciferase level relative to R848 condition, fold increase): 0.507
TLR8 500 nM (averaged NF-κB-Luciferase level relative to R848 condition, fold increase): 0.967

AGGTCTTGGCTTCGTG (antisense; LNA-modified, pattern not given here) [MB21D1-524 LNA V1]
TLR8 100 nM (averaged NF-κB-Luciferase level relative to R848 condition, fold increase): 0.596
TLR8 500 nM (averaged NF-κB-Luciferase level relative to R848 condition, fold increase): 1.953

AGTGTTGAGATACTCG (antisense; LNA-modified, pattern not given here) [EGFR-3652 LNA KL]
TLR8 100 nM (averaged NF-κB-Luciferase level relative to R848 condition, fold increase): 0.427
TLR8 500 nM (averaged NF-κB-Luciferase level relative to R848 condition, fold increase): 0.599

ATCTGGCAGCCCATCA (antisense; LNA-modified, pattern not given here) [CTNN2B-2516 LNA V1]
TLR8 100 nM (averaged NF-κB-Luciferase level relative to R848 condition, fold increase): 0.808
TLR8 500 nM (averaged NF-κB-Luciferase level relative to R848 condition, fold increase): 2.628

ATGGCCTCCCATCTCC (antisense; LNA-modified, pattern not given here) [HPRT LNA-330 V1]
TLR8 100 nM (averaged NF-κB-Luciferase level relative to R848 condition, fold increase): 0.369
TLR8 500 nM (averaged NF-κB-Luciferase level relative to R848 condition, fold increase): 1.356

ATGTGATGGCCTCCCA (antisense; LNA-modified, pattern not given here) [HPRT LNA-335 V1]
TLR8 100 nM (averaged NF-κB-Luciferase level relative to R848 condition, fold increase): 0.637
TLR8 500 nM (averaged NF-κB-Luciferase level relative to R848 condition, fold increase): 1.840

CACTTCGTGGGGTCCT (antisense; LNA-modified, pattern not given here) [HPRT LNA-664 V1]
TLR8 100 nM (averaged NF-κB-Luciferase level relative to R848 condition, fold increase): 0.425
TLR8 500 nM (averaged NF-κB-Luciferase level relative to R848 condition, fold increase): 1.446

CATCCACCACGTCGTC (antisense; LNA-modified, pattern not given here) [EGFR-3266 LNA V1]
TLR8 100 nM (averaged NF-κB-Luciferase level relative to R848 condition, fold increase): 0.778
TLR8 500 nM (averaged NF-κB-Luciferase level relative to R848 condition, fold increase): 2.417

CCAACACTTCGTGGGG (antisense; LNA-modified, pattern not given here) [HPRT LNA-668 V1]
TLR8 100 nM (averaged NF-κB-Luciferase level relative to R848 condition, fold increase): 0.535
TLR8 500 nM (averaged NF-κB-Luciferase level relative to R848 condition, fold increase): 0.835

CCACATCCTGTGGCTC (antisense; LNA-modified, pattern not given here) [CAMSAP1-2906 LNA V1]
TLR8 100 nM (averaged NF-κB-Luciferase level relative to R848 condition, fold increase): 0.291
TLR8 500 nM (averaged NF-κB-Luciferase level relative to R848 condition, fold increase): 0.232

CCACTTGGCAGACCAT (antisense; LNA-modified, pattern not given here) [CTNN2B-1575 LNA V1]
TLR8 100 nM (averaged NF-κB-Luciferase level relative to R848 condition, fold increase): 0.684
TLR8 500 nM (averaged NF-κB-Luciferase level relative to R848 condition, fold increase): 1.213

CCAGCAGGTCAGCAAA (antisense; LNA-modified, pattern not given here) [HPRT LNA-388 KL]
TLR8 100 nM (averaged NF-κB-Luciferase level relative to R848 condition, fold increase): 0.412
TLR8 500 nM (averaged NF-κB-Luciferase level relative to R848 condition, fold increase): 1.499

CCCACTTGGCAGACCA (antisense; LNA-modified, pattern not given here) [CTNN2B-1576 LNA V1]
TLR8 100 nM (averaged NF-κB-Luciferase level relative to R848 condition, fold increase): 0.899
TLR8 500 nM (averaged NF-κB-Luciferase level relative to R848 condition, fold increase): 1.865

CCTCCCATCTCCTTCA (antisense; LNA-modified, pattern not given here) [HPRT LNA-326 V1]
TLR8 100 nM (averaged NF-κB-Luciferase level relative to R848 condition, fold increase): 1.469
TLR8 500 nM (averaged NF-κB-Luciferase level relative to R848 condition, fold increase): 6.759

CCTTGCACGTGGCTTC (antisense; LNA-modified, pattern not given here) [EGFR-1013 LNA V1]
TLR8 100 nM (averaged NF-κB-Luciferase level relative to R848 condition, fold increase): 1.315
TLR8 500 nM (averaged NF-κB-Luciferase level relative to R848 condition, fold increase): 2.414

CGCTTTTCTGTCTGGT (antisense; LNA-modified, pattern not given here) [CTNN2B-311 LNA KL]
TLR8 100 nM (averaged NF-κB-Luciferase level relative to R848 condition, fold increase): 0.920
TLR8 500 nM (averaged NF-κB-Luciferase level relative to R848 condition, fold increase): 2.896

CGGCCTCGGAAGCTCT (antisense; LNA-modified, pattern not given here) [MB21D1-168 LNA V1]
TLR8 100 nM (averaged NF-κB-Luciferase level relative to R848 condition, fold increase): 0.402
TLR8 500 nM (averaged NF-κB-Luciferase level relative to R848 condition, fold increase): 0.219

CGTATTATAGCCGATT (antisense; LNA-modified, pattern not given here) [NC1 LNA PS 3-10-3]
TLR8 100 nM (averaged NF-κB-Luciferase level relative to R848 condition, fold increase): 0.396
TLR8 500 nM (averaged NF-κB-Luciferase level relative to R848 condition, fold increase): 0.716

CTGCAGCTTCCTTGTC (antisense; LNA-modified, pattern not given here) [CTNN2B-2136 LNA V1]
TLR8 100 nM (averaged NF-κB-Luciferase level relative to R848 condition, fold increase): 0.478
TLR8 500 nM (averaged NF-κB-Luciferase level relative to R848 condition, fold increase): 0.936

CTTCGTGGGGTCCTTT (antisense; LNA-modified, pattern not given here) [HPRT LNA-662 V1]
TLR8 100 nM (averaged NF-κB-Luciferase level relative to R848 condition, fold increase): 1.097
TLR8 500 nM (averaged NF-κB-Luciferase level relative to R848 condition, fold increase): 4.366

CTTGAAGCATCGTATC (antisense; LNA-modified, pattern not given here) [CTNN2B-3648 LNA KL]
TLR8 100 nM (averaged NF-κB-Luciferase level relative to R848 condition, fold increase): 0.960
TLR8 500 nM (averaged NF-κB-Luciferase level relative to R848 condition, fold increase): 3.889

CTTGGCTTCGTGGAGC (antisense; LNA-modified, pattern not given here) [MB21D1-520 LNA V1]
TLR8 100 nM (averaged NF-κB-Luciferase level relative to R848 condition, fold increase): 0.458
TLR8 500 nM (averaged NF-κB-Luciferase level relative to R848 condition, fold increase): 0.594
